# Laboratory results published in patent publication EP2567959B1, “6-(4-HYDROXY-PHENYL)-3-STYRYL-1H-PYRAZOLO[3,4-B]PYRIDINE-4-CARBOXYLIC ACID AMIDE DERIVATIVES AS KINASE INHIBITORS” (SANOFI, priority 2011, dated 2013).
# Molecular target: T1, human full-length recombinant PKC βII (Homo sapiens, UniProt P05771)
# T1 construct: Active human full-length recombinant PKC βII; purchased Invitrogen GmbH, Darmstadt, Germany
# Experiment: Determination of PKC βII inhibition (Caliper mobility-shift kinase assay, phosphorylation of fluorescein peptide substrate)
# Type: biochemical
# Details: final compound concentration 1.14 µM (±0.15 µM); 60 min incubation at 32 °C
# Procedure: Determination of PKC βII inhibition
# PKC βII inhibition was determined according to the following protocol:
# Active human full-length recombinant PKC βII and the peptide substrate, Fluorescein-RFARKGSLRQKNV, were purchased from Invitrogen GmbH, Darmstadt, Germany. Adenosine-5'-triphosphate (ATP), bovine serum albumine (BSA), dimethylsulphoxide (DMSO), 4-(2-hydroxyethyl)piperazine-1-ethanesulfonic acid (Hepes), Triton X-100, 1,2-Dioleoyl-sn-glycerol (DAG), L-α-Phosphatidyl-L-serine (PS), calcium chloride (CaCl2), and Pluronic F-68 were purchased from Sigma-Aldrich, Munich, Germany. Magnesium chloride, 1 M sodium hydroxide solution, 1M hydrochloric acid solution and EDTA were obtained from Merck Biosciences, Darmstadt, Germany.
# Test compounds were diluted to three times the test concentration in buffer 1 (30 mM Hepes-NaOH, pH 7.4, 0.01 % Pluronic F-68 and 3 % (v/v) DMSO). The PKC βII enzyme was diluted to a concentration of 30 ng/ml in buffer 2 (30 mM Hepes-NaOH, pH 7.4, 15 mM MgCl2,150 µM CaCl2, 150 µg/ml PS, 60 µg/ml DAG, and 0.045 % (w/v) Triton X-100). The peptide substrate and ATP were diluted to concentrations of 3 µM and 120 µM, respectively, in buffer 2. Two µl of the compound solution were mixed with 2 µl of the diluted enzyme in a 384-well small volume microtiter plate (Greiner, Bio-One, Frickenhausen, Germany), and the kinase reaction was initiated by addition of 2 µl of the solution containing peptide substrate and ATP. After 60 min incubation at 32 °C, the reaction was stopped by addition of 20 µl of a solution containing 130 mM Hepes-NaOH, pH 7.4, 0.0195 % (v/v) Brij-35, 6.5 mM EDTA, 0.13 % chip coating reagent 3 (Caliper Lifescience Inc, Hopkinton, MA) and 6.5 % (v/v) DMSO. Phosphorylation of the substrate peptide was then detected on a Caliper 3000 instrument essentially as described by Pommereau et al (J. Biomol. Screening 2004, 9(5), 409-416). Separation conditions were as follows: Pressure -0.8 psi, upstream voltage - 3000 V, downstream voltage -800 V. Positive controls (buffer 1 instead of compound) and negative controls (buffer 1 instead of compound and buffer 2 instead of kinase solution) were run in parallel on each plate. Fractional turnover (R) was determined as the height of the peak of the phosphorylated peptide product divided by the sum of the unphosphorylated substrate and phosphorylated product peak heights. Percent-inhibition values for the test compounds were determined using the formula % Inhibition = 100*(1-(Rcompound-Rnegative control)/(Rpositive control-Rnegative control). [formula]
# In the following table % inhibition values observed with example compounds at a final concentration of 1.14 µM (±0.15 µM) are listed: […]
# T1 sequence (P05771 1-673 isoform P05771-2): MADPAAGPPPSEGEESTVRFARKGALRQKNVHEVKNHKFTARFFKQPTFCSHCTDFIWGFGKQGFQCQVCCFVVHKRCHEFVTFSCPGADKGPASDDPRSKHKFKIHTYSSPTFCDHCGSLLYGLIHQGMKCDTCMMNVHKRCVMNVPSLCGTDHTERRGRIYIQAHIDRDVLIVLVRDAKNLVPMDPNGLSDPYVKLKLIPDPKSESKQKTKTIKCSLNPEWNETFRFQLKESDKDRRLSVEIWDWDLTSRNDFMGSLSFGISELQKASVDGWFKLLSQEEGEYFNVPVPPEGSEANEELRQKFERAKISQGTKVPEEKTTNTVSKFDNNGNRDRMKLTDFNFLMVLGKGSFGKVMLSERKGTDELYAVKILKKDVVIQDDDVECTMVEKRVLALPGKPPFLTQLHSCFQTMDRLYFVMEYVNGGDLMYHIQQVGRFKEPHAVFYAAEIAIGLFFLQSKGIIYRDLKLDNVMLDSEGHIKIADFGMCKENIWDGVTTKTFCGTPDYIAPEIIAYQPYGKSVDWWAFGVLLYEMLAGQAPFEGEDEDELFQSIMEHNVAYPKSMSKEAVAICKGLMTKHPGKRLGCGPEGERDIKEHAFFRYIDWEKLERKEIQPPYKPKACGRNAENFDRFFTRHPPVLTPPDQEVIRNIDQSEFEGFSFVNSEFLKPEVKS
row,Compound,inhibition at 1.14 µM [%]
1,"O=C(c1cc(-c2ccc(O)cc2)nc2[nH]nc(/C=C/c3cccc(N4CCCCC4)c3)c12)N1CCNCC1 [Example 26, {6-(4-Hydroxy-phenyl)-3-[(E)-2-(3-piperidin-1-yl-phenyl)-vinyl]-1H-pyrazolo[3,4-b]pyridin-4-yl}-piperazin-1-yl-methanone]",96
2,"O=C(c1cc(-c2ccc(O)cc2)nc2[nH]nc(/C=C/c3cccc(N4CCOCC4)c3)c12)N1CCNCC1 [Example 27, {6-(4-Hydroxy-phenyl)-3-[(E)-2-(3-morpholin-4-yl-phenyl)-vinyl]-1H-pyrazolo[3,4-b]pyridin-4-yl}-piperazin-1-yl-methanone]",98
3,"O=C(c1cc(-c2ccc(O)cc2)nc2[nH]nc(/C=C/c3cccc(N4CCCC4)c3)c12)N1CCNCC1 [Example 28, {6-(4-Hydroxy-phenyl)-3-[(E)-2-(3-pyrrolidin-1-yl-phenyl)-vinyl]-1H-pyrazolo[3,4-b]pyridin-4-yl}-piperazin-1-yl-methanone]",94
4,"Cc1cc(/C=C/c2n[nH]c3nc(-c4ccc(O)cc4)cc(C(=O)N4CCNCC4)c23)ccc1C#N [Example 29, 4-{(E)-2-[6-(4-Hydroxy-phenyl)-4-(piperazine-1-carbonyl)-1H-pyrazolo[3,4-b]pyridin-3-yl]-vinyl}-2-methyl-benzonitrile]",96
5,"O=C(c1cc(-c2ccc(O)cc2)nc2[nH]nc(/C=C/c3cc(Cl)cc(N4CCCCC4)c3)c12)N1CCNCC1 [Example 30, [3-[(E)-2-(3-Chloro-5-pipe-ridin-1-yl-phe-nyl)-vinyl]-6-(4-hydroxy-phenyl)-1H-pyrazolo[3,4-b]pyridin-4-yl]-piperazin-1-yl-methanone]",90
6,"CN(C)C(=O)c1cccc(/C=C/c2n[nH]c3nc(-c4ccc(O)cc4)cc(C(=O)N4CCNCC4)c23)c1 [Example 31, 3-{(E)-2-[6-(4-Hydroxy-phenyl)-4-(piperazine-1-carbonyl)-1H-py-razolo[3,4-b]py-ridin-3-yl]-vinyl}-N,N-dimethyl-benzamide]",99
7,"CN1Cc2cc(/C=C/c3n[nH]c4nc(-c5ccc(O)cc5)cc(C(=O)N5CCNCC5)c34)ccc2C1=O [Example 32, 5-{(E)-2-[6-(4-Hydroxy-phenyl)-4-(piperazine-1-carbonyl)-1H-py-razolo[3,4-b]pyri-din-3-yl]-vinyl}-2-methyl-2,3-di-hydro-isoindol-1-one]",99
8,"O=C(c1cc(-c2ccc(O)cc2)nc2[nH]nc(/C=C/c3cccc4c3NCC4)c12)N1CCNCC1 [Example 33, [3-[(E)-2-(2,3-Dihydro-1H-indol-7-yl)-vinyl]-6-(4-hydroxyphenyl)-1H-pyrazolo[3,4-b]-pyridin-4-yl]-piperazin-1-yl-methanone]",99
9,"CN(C)C(=O)c1cccc(/C=C/c2n[nH]c3nc(-c4ccc(O)cc4)cc(C(=O)N4CCNCC4(C)C)c23)c1 [Example 34, 3-{(E)-2-[4-(2,2-Dimethyl-piperazine-1-carbonyl)-6-(4-hydroxy-phenyl)-1H-pyrazolo[3,4-b]pyridin-3-yl]-vinyl}-N,N-dimethyl-benzamide]",98
10,"CN1Cc2ccc(/C=C/c3n[nH]c4nc(-c5ccc(O)cc5)cc(C(=O)N5CCNCC5)c34)cc2C1=O [Example 35, 6-{(E)-2-[6-(4-Hydroxy-phenyl)-4-(piperazine-1-carbonyl)-1H-pyrazolo[3,4-b]pyridin-3-yl]-vinyl}-2-methyl-2,3-dihydro-isoindol-1-one]",98
11,"O=C(c1cc(-c2ccc(O)cc2)nc2[nH]nc(CCC3CCCCC3)c12)N1CCNCC1 [Example 36, [3-(2-cyclohexyl-ethyl)-6-(4-hydroxy-phenyl)-1H-pyrazolo[3,4-b]pyridin-4-yl]-piperazin-1-yl-methanone]",81
12,"O=C(c1cc(-c2ccc(O)cc2)nc2[nH]nc(/C=C/c3ccc(F)cc3)c12)N1CCNCC1 [Example 37, [3-[(E)-2-(4-Fluoro-phenyl)-vinyl]-6-(4-hydroxy-phenyl)-1H-pyrazolo[3,4-b]pyridin-4-yl]-piperazin-1-yl-methanone]",97
13,"Cc1cccc(/C=C/c2n[nH]c3nc(-c4ccc(O)cc4)cc(C(=O)N4CCNCC4)c23)c1 [Example 38, [6-(4-Hydroxy-phenyl)-3-((E)-2-m-tolyl-vinyl)-1H-pyrazolo[3,4-b]pyridin-4-yl]-piperazin-1-yl-methanone]",98
14,"O=C(c1cc(-c2ccc(O)cc2)nc2[nH]nc(/C=C/c3ccc(Cl)cc3Cl)c12)N1CCNCC1 [Example 39, [3-[(E)-2-(2,4-Dichloro-phenyl)-vinyl]-6-(4-hydroxy-phenyl)-1H-pyrazolo[3,4-b]pyridin-4-yl]-piperazin-1-yl-methanone]",39
15,"Cc1cc(C)cc(/C=C/c2n[nH]c3nc(-c4ccc(O)cc4)cc(C(=O)N4CCNCC4)c23)c1 [Example 40, [3-[(E)-2-(3,5-Dimethylphenyl)-vinyl]-6-(4-hydroxy-phenyl)-1H-pyrazolo[3,4-b]pyridin-4-yl]-piperazin-1-yl-methanone]",99
16,"O=C(c1cc(-c2ccc(O)cc2)nc2[nH]nc(/C=C/c3ccc(OC(F)F)cc3)c12)N1CCNCC1 [Example 41, [3-[(E)-2-(4-Difluoromethoxy-phenyl)-vinyl]-6-(4-hydroxy-phenyl)-1H-pyrazolo[3,4-b]pyridin-4-yl]-piperazin-1-yl-methanone]",97
17,"O=C(c1cc(-c2ccc(O)cc2)nc2[nH]nc(/C=C/c3ccc(C(F)(F)F)cc3)c12)N1CCNCC1 [Example 42, {6-(4-Hydroxy-phenyl)-3-[(E)-2-(4-trifluoromethylphenyl)-vinyl]-1 H-pyrazolo[3,4-b]pyridin-4-yl}-piperazin-1-yl-methanone]",66
18,"COc1ccc(/C=C/c2n[nH]c3nc(-c4ccc(O)cc4)cc(C(=O)N4CCNCC4)c23)c(OC)c1 [Example 43, [3-[(E)-2-(2,4-Dimethoxyphenyl)-vinyl]-6-(4-hydroxy-phenyl)-1H-pyrazolo[3,4-b]pyridin-4-yl]-piperazin-1-yl-methanone]",87
19,"O=C(c1cc(-c2ccc(O)cc2)nc2[nH]nc(/C=C/c3ccc(Oc4ccccc4)cc3)c12)N1CCNCC1 [Example 44, {6-(4-hydroxy-phenyl)-3-[(E)-2-(4-phenoxy-phenyl)-vinyl]-1H-pyrazolo[3,4-b]pyridin-4-yl}-piperazin-1-yl-methanone]",97
20,"O=C(c1cc(-c2ccc(O)cc2)nc2[nH]nc(/C=C/c3ccc(Cl)c(Cl)c3)c12)N1CCNCC1 [Example 45, [3-[(E)-2-(3,4-Dichloro-phenyl)-vinyl]-6-(4-hydroxy-phenyl)-1H-pyrazolo[3,4-b]pyridin-4-yl]-piperazin-1-yl-methanone]",61
21,"O=C(c1cc(-c2ccc(O)cc2)nc2[nH]nc(/C=C/c3cccc(C(F)(F)F)c3)c12)N1CCNCC1 [Example 46, {6-(4-Hydroxy-phenyl)-3-[(E)-2-(3-trifluoromethylphenyl)-vinyl]-1 H-pyrazolo[3,4-b]pyridin-4-yl}-piperazin-1-yl-methanone]",97
22,"Cc1cc(/C=C/c2n[nH]c3nc(-c4ccc(O)cc4)cc(C(=O)N4CCNCC4)c23)ccc1O [Example 47, [3-[(E)-2-(4-Hydroxy-3-methyl-phenyl)-vinyl]-6-(4-hydroxy-phenyl)-1H-pyrazolo[3,4-b]pyridin-4-yl]-piperazin-1-yl-methanone]",98
23,"O=C(c1cc(-c2ccc(O)cc2)nc2[nH]nc(/C=C/c3cccc(Cl)c3)c12)N1CCNCC1 [Example 48, [3-[(E)-2-(3-Chloro-phenyl)-vinyl]-6-(4-hydroxy-phenyl)-1H-pyrazolo[3,4-b]pyridin-4-yl]-piperazin-1-yl-methanone]",97
24,"Cc1ccc(/C=C/c2n[nH]c3nc(-c4ccc(O)cc4)cc(C(=O)N4CCNCC4)c23)c(C)c1 [Example 49, [3-[(E)-2-(2,4-Dimethylphenyl)-vinyl]-6-(4-hydroxy-phenyl)-1H-pyrazolo[3,4-b]pyridin-4-yl]-piperazin-1-yl-methanone]",88
